Laboratory results as given in a melting point compilation (Tetko et al.).

| SMILES | melting point |
| --- | --- |
| Cc1ccc(-n2nc(C(=O)O)c3c2CCC3)cc1 | 224 to 226 °C |
| Brc1cccc(-c2ncc[nH]2)c1 | 129 to 131 °C |
| N#Cc1ccc(Cl)cc1NC1CCCC1 | 74 to 76 °C |
| CC(NC(=O)OC(C)(C)C)C(O)Cc1ccccc1 (stereo not drawn) | 116 to 118 °C |
| CC(C)(C)OC(=O)N1CCN(CC#N)CC1 | 79 to 81 °C |
| NC(C(=O)O)c1cccc(Br)c1 (stereo not drawn) | 221 to 223 °C |
| NS(=O)(=O)c1nnc[nH]1 | 224 to 226 °C |
| ClCc1nc2cccnc2s1 | 65 to 67 °C |
| Cc1nc(C(=O)O)nn1-c1nnc[nH]1 | 225 to 227 °C |
| O=C(CCl)N1CCc2[nH]c3ccccc3c2C1 | 188 to 190 °C |
| O=C(c1ccc(Cl)cc1)c1cccnc1 | 87 to 89 °C |
| CC(C)(C)c1ccc(C(O)CN)cc1 (stereo not drawn) | 125 to 127 °C |
| CS(=O)(=O)c1ccc(Cl)s1 | 69 to 71 °C |
| COc1ccc(-n2c(S)nc3sc4c(c3c2=O)CCCC4)cc1 | 312 to 314 °C |
| CNS(=O)(=O)c1cc(N)ccc1C | 133 to 137 °C |
| CCN(CC)S(=O)(=O)c1ccc(C(=O)NCC(=O)O)cc1 | 143 to 145 °C |
| OCc1ccc(F)c2cccnc12 | 131 to 133 °C |
| ClCc1coc(-c2cccc(Cl)c2)n1 | 76 to 78 °C |
| O=S(=O)(Cl)c1c[nH]cn1 | 164 to 166 °C |
| O=c1[nH]cnc2cc(F)c([N+](=O)[O-])cc12 | 292 to 294 °C |
| Nc1nc2ccc(SC(F)F)cc2s1 | 105 to 107 °C |
| Cc1ccc(-c2nn(-c3ccc(F)cc3)cc2C(=O)O)cc1 | 212 to 214 °C |
| CON(C)S(=O)(=O)c1ccc(Br)cc1 | 81 to 83 °C |
| O=C(O)c1ccc(NC(=O)C23CC4CC(CC(C4)C2)C3)cc1 | 284 to 286 °C |

| SMILES | melting point |
| --- | --- |
| Cc1cccc(-n2ncc(C(=O)O)n2)c1 | 131 to 133 °C |
| OCc1cnn(Cc2ccccc2)c1 | 55 to 57 °C |
| CC(C)CC1CCC(=O)NC1=O (stereo not drawn) | 129 to 131 °C |
| O=C(O)c1nc(Cl)cnc1Br | 99 to 101 °C |
| Nc1ccc(NS(=O)(=O)c2ccc3c(c2)OCCO3)cc1 | 176 to 178 °C |
| Nc1cccc(CS(=O)(=O)c2ccccc2)c1 | 132 to 134 °C |
| O=S(=O)(Cl)c1ccc(Cl)c2ncccc12 | 111 to 113 °C |
| CCCCC(NC(=O)NCC)C(=O)O (stereo not drawn) | 96 to 98 °C |
| CC(C)Nc1ccccn1 | 41 to 43 °C |
| O=C(O)c1n[nH]c(=O)c2ccccc12 | 230 to 232 °C |
| O=C1COc2ncc(Br)cc2N1 | 256 to 258 °C |
| O=C(O)c1ccc(-n2nnc3ccccc32)cc1 | 308 to 310 °C |
| Cn1[nH]c(=O)c2c(=O)cc[nH]c21 | 327 to 329 °C |
| CC(Sc1ccc([N+](=O)[O-])cc1)C(=O)O (stereo not drawn) | 114 to 116 °C |
| COc1ccc2c(c1)CC(C(=O)O)CO2 (stereo not drawn) | 120 to 122 °C |
| Cc1ccc(S(=O)(=O)N(C)C)cc1NC(=S)NN | 191 to 193 °C |
| NC(=O)CNS(=O)(=O)c1cccc(C(=O)O)c1 | 259 to 261 °C |
| COc1ccnc(N2CCC(C(=O)O)CC2)n1 | 131 to 133 °C |
| Cc1nc2sccn2c1C(N)=S | 232 to 234 °C |
| CC(C)(C)n1cc(C(=O)O)cn1 | 155 to 157 °C |
| COC(=O)c1c[nH]c(=O)c(C#N)c1 | 264 to 266 °C |
| ClCc1nnc(-c2ccccc2)o1 | 90 to 100 °C |
| Cc1cc(C(=O)N2CCCC(C)C2)ccc1N (stereo not drawn) | 128 to 130 °C |
| O=C(O)C1CSC2(c3ccc(F)cc3)CCC(=O)N12 (stereo not drawn) | 202 to 204 °C |

| SMILES | melting point |
| --- | --- |
| O=C(O)c1ccc(-n2cncn2)c([N+](=O)[O-])c1 | 274 to 276 °C |
| COc1cc2c(cc1OC)CN(Cc1ccccc1N)CC2 | 149 to 151 °C |
| Cc1ccccc1Sc1ccc(C(=O)O)cc1 | 178 to 180 °C |
| Cc1ccc(C(C)C)c(OCCC(=O)O)c1 | 93 to 95 °C |
| Cc1c(N)cccc1S(=O)(=O)NC1CC1 | 111 to 113 °C |
| CC1(C)CC(=O)c2ccc(O)cc2O1 | 168 to 170 °C |
| O=C(O)/C(=C\c1cccc(Cl)c1)c1cccs1 | 192 to 194 °C |
| Cn1cc(CNc2ccccc2C(F)(F)F)cn1 | 53 to 55 °C |
| O=C(O)CSCc1ccc(Cl)c(Cl)c1 | 67 to 69 °C |
| Cc1cccc2c(CC#N)c[nH]c12 | 109 to 111 °C |
| NCc1cccc(NC(=O)C2CCCC2)c1 | 86 to 88 °C |
| Nc1cc(Cl)c(NC(=O)c2cnccn2)c(Cl)c1 | 195 to 197 °C |
| COc1cc(C(=O)O)ccc1OCc1ccccc1Cl | 143 to 145 °C |
| COc1ccc2c(c1)NC(=O)CO2 | 157 to 159 °C |
| Clc1ccc(-c2cc3ncnc(Cl)c3s2)cc1 | 188 to 190 °C |
| CCCn1c(C)c(C(=O)OCC)c2cc(O)ccc21 | 179 to 181 °C |
| Cc1nc2cc(Cl)ccc2c(=O)n1N | 202 to 204 °C |
| COc1ccc(OC)c(NC(=O)C(C)Cl)c1 (stereo not drawn) | 56 to 58 °C |
| Cn1ccnc1-c1nnc(N)s1 | 263 to 265 °C |
| CN1C(=O)c2ccc(C(=O)O)cc2S1(=O)=O | 249 to 251 °C |
| Sc1nnnn1-c1ccc2c(c1)OCO2 | 157 to 159 °C |
| COc1cc(F)c(N)cc1F | 80 to 82 °C |
| CCOC(=O)c1oc2c(Br)cccc2c1C | 68 to 70 °C |
| Cc1c(N)cccc1C(=O)N1CCOCC1 | 106 to 108 °C |

| SMILES | melting point |
| --- | --- |
| O=C(O)c1ccc(NC(=O)c2ccccc2I)cc1 | 275 to 277 °C |
| O=C(O)C=CSCc1ccco1 | 119 to 121 °C |
| NCc1nnc(-c2cccc(Br)c2)o1 | 98 to 100 °C |
| Cn1ccc(C(=O)N2CCCC(C(=O)O)C2)cc1=O (stereo not drawn) | 208 to 210 °C |
| NCc1cccnc1N1CCC(C(N)=O)CC1 | 129 to 131 °C |
| Sc1nnc(C2CC2)n1Cc1ccco1 | 260 to 262 °C |
| O=C1NC(=O)C(c2cccs2)(C2CC2)N1 (stereo not drawn) | 199 to 201 °C |
| O=C(O)c1ccc2c(=O)[nH][nH]c(=O)c2c1 | 250 to 252 °C |
| O=C(O)c1cc(-c2ccncc2)on1 | 276 to 278 °C |
| C1CC2OC1C1CNCC21 (stereo not drawn) | 53 to 55 °C |
| O=C(O)CCC(NC(=O)Cc1ccc2ccccc2c1)C(=O)O (stereo not drawn) | 173 to 175 °C |
| NC(=O)Cc1nc2ccccc2s1 | 167 to 169 °C |
| O=C(CCl)NCc1cn(Cc2ccccc2)nc1-c1ccccc1 | 82 to 84 °C |
| CC(C)CC(C(=O)O)N1C(=O)C2CC=CCC2C1=O (stereo not drawn) | 135 to 137 °C |
| Nc1ncncc1CO | 165 to 167 °C |
| O=C(O)c1ccc(Br)cc1Oc1ccc(F)cc1 | 187 to 189 °C |
| Cc1csc(NCC(F)(F)F)n1 | 142 to 144 °C |
| N#Cc1ccc(S(=O)(=O)N2CCCC2)cc1 | 103 to 105 °C |
| O=C1CCOc2c(Cl)cc(Cl)cc21 | 86 to 88 °C |
| Nc1ccccc1C(=O)Nc1ccc(F)cc1 | 109 to 112 °C |
| O=C(O)Cn1ccc(C(F)(F)F)n1 | 58 to 64 °C |
| O=C(O)CC1=NN(c2ccc(Cl)nn2)C(=O)C1 | 183 to 185 °C |
| Cc1nn(-c2ccccc2)c(C)c1CC(=O)O | 110 to 112 °C |
| Clc1ccnc(C2=NCCO2)c1 | 73 to 75 °C |

| SMILES | melting point |
| --- | --- |
| O=C(O)C=C1CCCCC1 | 90 to 92 °C |
| O=S1(=O)CC(O)C(S(=O)(=O)Cl)C1 (stereo not drawn) | 111 to 113 °C |
| OC1(CNCc2ccccc2)CCc2ccccc21 (stereo not drawn) | 54 to 56 °C |
| COc1cc(OC)c2cc(CCCN)[nH]c2c1 | 113 to 115 °C |
| Cc1ccc(C=CCC(=O)O)cc1 | 105 to 107 °C |
| O=C(O)c1cc(OCc2ccccc2)ccc1O | 165 to 167 °C |
| CC(C)Nc1nnc(S)s1 | 194 to 196 °C |
| Cc1ccccc1-n1nc(C(C)(C)C)cc1N | 112 to 114 °C |
| CCOc1ccc(/C=C/C(=O)O)cc1OC | 202 to 204 °C |
| O=C(O)CCCCCc1ccc(O)cc1 | 104 to 106 °C |
| O=C(O)c1cc(S(=O)(=O)Cl)cc(F)c1Cl | 149 to 151 °C |
| NC(=S)c1ccc(N)cc1 | 189 to 191 °C |
| Cc1cn2nc(N)c3ccccc3c2n1 | 216 to 218 °C |
| Nc1nc(-c2ccc(NC(=O)c3ccccc3)cc2)cs1 | 216 to 218 °C |
| O=C(O)c1ccc2c(c1)CC(c1ccccc1)OC2=O (stereo not drawn) | 310 to 312 °C |
| Cc1ccc(OCCCC(=O)O)cc1C | 90 to 92 °C |
| NS(=O)(=O)c1cccc2c1CCCN2 | 147 to 149 °C |
| COc1ccc(C)cc1NC(=O)CNC(=O)CCl | 121 to 123 °C |
| O=[N+]([O-])c1ccc2c(c1)NCCS2 | 142 to 144 °C |
| COc1ccc(OCc2nc(C=O)cs2)cc1 | 95 to 97 °C |
| CS(=O)(=O)Cc1ccc(F)cc1CN | 77 to 79 °C |
| N#Cc1cccc(C(F)(F)F)n1 | 36 to 38 °C |
| O=S(=O)(O)c1ccc2[nH]cnc2c1 | 359 to 361 °C |
| O=c1ccc(-c2cccc([N+](=O)[O-])c2)n[nH]1 | 274 to 276 °C |

| SMILES | melting point |
| --- | --- |
| O=C(CBr)c1sccc1Br | 60 to 62 °C |
| CC(=O)NCc1ccc(C(C)=O)s1 | 129 to 131 °C |
| Nc1ccccc1-c1nc(C2CC2)n[nH]1 | 213 to 215 °C |
| Cc1cc(C(=O)CCl)c(C)n1Cc1ccc(F)cc1 | 94 to 96 °C |
| COc1ccc(OCc2ccccn2)c(/C=C/C(=O)O)c1 | 177 to 179 °C |
| Cc1ccc(-n2cc(S(=O)(=O)Cl)cn2)cc1 | 92 to 94 °C |
| CC(C)NC(=O)N1CCC(C(=O)O)CC1 | 137 to 139 °C |
| Cc1noc(C)c1S(=O)(=O)NCC(=O)O | 113 to 115 °C |
| CC(C)CCn1cc(C(=O)O)nn1 | 187 to 189 °C |
| Clc1nnc(-c2ccccc2Cl)s1 | 93 to 95 °C |
| COC(=O)NC1(C(=O)O)CCCC1 | 131 to 133 °C |
| O=C1CN=C(S)N1Cc1ccccc1 | < 17 °C |
| O=S(=O)(Nc1ccc(F)c(F)c1)c1ccc(Cl)nc1 | 159 to 161 °C |
| Cc1cc(C(=O)O)ccc1S(=O)(=O)Cl | 197 to 199 °C |
| C#CCNC(=O)Nc1ccc(C(C)=O)cc1 | 169 to 171 °C |
| COc1ccc(-c2csc(NC(=O)C(C)Cl)n2)cc1 (stereo not drawn) | 124 to 126 °C |
| Cc1cc(C#N)ccc1CO | 66 to 68 °C |
| ClCc1cnc(Cl)s1 | 31 to 33 °C |
| CC(C)CCOc1ccc(C(=O)NN)cc1 | 108 to 110 °C |
| CC(C)(C)Oc1ccc(N)cc1 | 60 to 62 °C |
| O=C(O)CCCc1nnc(-c2ccccc2I)o1 | 69 to 71 °C |
| O=C(c1cccnc1O)N1CCCNCC1 | 157 to 159 °C |
| COc1cc2c(cc1NC(=O)OCC(F)(F)F)oc1ccccc12 | 122 to 124 °C |
